Data published in patent US20240408082A1, “METHODS FOR TREATING CANCERS AND TUMORS” (BEYONDSPRING PHARMACEUTICALS, INC., priority 2021, published 2024).

System: bladder cancer
Assay: 3D clonogenic assay, Example 1, bladder cancer
Assay type: cell-based
Details: n=9 models
Procedure: In the present study, plinabulin was characterized for its ability to inhibit anchorage independent growth and ex vivo colony formation of tumor cells in semi-solid medium. The compound was investigated in 87 out of 93 originally planned tumor xenografts representing all major cancer types using a 3D clonogenic assay in a 96-well format with colony count based on image analysis as read-out. By using this assay, the investigational compound was assessed for the ability to inhibit anchorage independent growth and ex vivo colony formation of tumor cells in semi-solid medium.
A master stock solution of plinabulin was prepared by dissolving the compound in DMSO at a concentration of 9.9 mM. Working stock solutions were prepared by diluting the master stock solution with DMSO to a concentration of 0.99 mM (330-fold the highest test concentration). Small aliquots of the master and working stock were stored at −20° C. […]
Plinabulin was investigated in 87 PDX models representing a number of cancer types. […] The percentage of viable cells was determined in a Neubauer-hemocytometer using trypan blue exclusion. […]
The clonogenic assay was carried out in a 96 well plate format using ultra low attachment plates. […] Cultures were incubated at 37° C. and 7.5% CO2 in a humidified atmosphere 13 days in total and monitored closely for colony growth using an inverted microscope. […]

SMILES: CC(C)(C)c1[nH]cnc1/C=c1\[nH]c(=O)/c(=C/c2ccccc2)[nH]c1=O [plinabulin, (3Z,6Z)-3-Benzylidene-6-{[5-(2-methyl-2-propanyl)-1H-imidazol-4-yl]methylene}-2,5-piperazinedione]
- geom. mean absolute IC70: 38 nM
